Test results reported in article PMC8528301 (PLoS ONE, 2021).
Where “and” joins values, the source holds several entries; their conditions need not be identical. Equal entries are not always repeated.

What was measured:
[1] = Repeated discontinuous oral DEX PK study (another 60 mice); type: in vivo, mouse
Experimental: 1 g/L of tetracycline (Sigma-Aldrich Inc, St. Louis, MO, USA) was added during both phases. Assuming that mice drink 5 mL of water per day, the dose they receive would be 1.6–2 mg/kg/day. […] At the end of in vivo procedures, all plasma samples were transferred from dry ice and stored at –80°C until analysis.

[2] = in vivo; conditions: female, C57BL/6, mouse, plasma, po, 2 mg/kg
Experimental: (§1) Blood was collected via saphenous/retro-orbital vein at time points: 0.25, 0.75, 0.5, 1, 1.5, 2, 4, 8, 16 hours after treatment. Three sets of mice were used for this experiment, where set 1 was sampled at 2,4,8 hr; set 2 at 0.25, 0.75, 1.5 hr; set 3 at 0.5, 1 and 16 hr. Samples were centrifuged at 10,000 rpm for 2 minutes, plasma was removed and stored at -80°C until further analysis.
(§2) Briefly, parameters and the Fisher Information Matrix (FIM) were estimated using the stochastic approximation expectation maximization (SAEM) algorithm, and the final log-likelihood estimated with importance sampling, all using the default Monolix initial settings, except that 1000 iterations were permitted for estimation of FIM using stochastic approximation. A variety of models were fit to the respective compound’s Ct data, parameterized using apparent clearances, volumes of distribution, and absorption rate constant as needed. […] A log-normal inter-individual and inter-occasion parameter distribution was assumed on selected supported parameters, with both on- and off-diagonal elements of parameter covariance matrices tested. Additive and/or proportional error models were tested and implemented as supported. Beal’s M3 method was used to fit any data that were below the LLOQ or above the upper limit of the assay range [20]. […] Additionally, Wald test P values were outputted for each covariate effect by the Monolix software.
(§3) Additionally, Wald test P values were outputted for each covariate effect by the Monolix software.

[3] = DEX single oral gavage plasma pharmacokinetics (NLME modeling); conditions: for DV (Dex oral gavage PK raw data): individual mice;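 on all read-outs here: plasma concentration-time data analysed by nonlinear mixed-effects modeling in Monolix with SAEM estimation, models built on apparent clearance, distribution volume and absorption rate constant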
Experimental: as §1, §2, §3

[4] = test system: PXR; conditions: cited from earlier work

C[C@@H]1C[C@H]2[C@@H]3CCC4=CC(=O)C=C[C@]4(C)[C@@]3(F)[C@@H](O)C[C@]2(C)[C@@]1(O)C(=O)CO [DEX, dexamethasone]
concentration at 3.5 day ([1]; male, C57BL/6, mouse, plasma, oral, 8 mg/L, DEX conc, Average ± S.D. of quantifiable samples, plasma, repeated study, VD3 Sufficient, M, Day 3.5, n=5): 0.0301 ± 0.0144 µM | concentration at 17.5 day ([1]; male, C57BL/6, mouse, plasma, oral, 8 mg/L, DEX conc, Average ± S.D. of quantifiable samples, plasma, repeated study, VD3 Sufficient, M, Day 17.5, n=5): 0.0252 ± 0.0082 µM | % BLQ ([1]; male, VD3 Def, 10.5 Days): 0% | % BLQ ([1]; male, VD3 Def, 17.5 Days): 0% | % BLQ ([1]; male, VD3 Suf, 10.5 Days): 100% | % BLQ ([1]; male, VD3 Suf, 17.5 Days): 0% | DEX conc, Average ± S.D. of quantifiable samples ([1]; plasma, repeated study, VD3 Deficient, F, Day 3.5, n=15): 51.832 nM | DEX conc, Average ± S.D. of quantifiable samples ([1]; plasma, repeated study, VD3 Deficient, F, Day 10.5, n=10): 116.245 nM | DEX conc, Average ± S.D. of quantifiable samples ([1]; plasma, repeated study, VD3 Deficient, F, Day 17.5, n=5): 105.912 nM | DEX conc, Average ± S.D. of quantifiable samples ([1]; plasma, repeated study, VD3 Deficient, M, Day 3.5, n=13): 15.9992 nM | DEX conc, Average ± S.D. of quantifiable samples ([1]; plasma, repeated study, VD3 Deficient, M, Day 10.5, n=10): 48.71 nM | DEX conc, Average ± S.D. of quantifiable samples ([1]; plasma, repeated study, VD3 Deficient, M, Day 17.5, n=5): 16.66 nM | DEX conc, Average ± S.D. of quantifiable samples ([1]; plasma, repeated study, VD3 Sufficient, F, Day 3.5, n=5): 47.222 nM | DEX conc, Average ± S.D. of quantifiable samples ([1]; plasma, repeated study, VD3 Sufficient, F, Day 10.5, n=3): 7.71 nM | DEX conc, Average ± S.D. of quantifiable samples ([1]; plasma, repeated study, VD3 Sufficient, F, Day 17.5, n=5): 45.604 nM | DEX conc, Average ± S.D. of quantifiable samples ([1]; plasma, repeated study, VD3 Sufficient, M, Day 3.5, n=5): 30.144 nM | DEX conc, Average ± S.D. of quantifiable samples ([1]; plasma, repeated study, VD3 Sufficient, M, Day 17.5, n=5): 25.19 nM | DEX conc, individual mouse ([1]; plasma, repeated study, female, VD3 Suf, 3.5 Days): BLQ (BLQ = BELOW the LLOQ, lower lmit of quantification = 5 nM dexamethasone) | DEX conc, individual mouse ([1]; plasma, repeated study, female, VD3 Suf, 10.5 Days): BLQ (BLQ = BELOW the LLOQ, lower lmit of quantification = 5 nM dexamethasone) | DEX conc, individual mouse ([1]; plasma, repeated study, male, VD3 Def, 3.5 Days): 9.88 nM and 17.04 nM and 5.32 nM and 11.52 nM and 38.23 nM and BLQ (BLQ = BELOW the LLOQ, lower lmit of quantification = 5 nM dexamethasone) and 6.47 nM and 59.55 nM and 8.86 nM and 29.02 nM and 4.39 nM and 6.91 nM | DEX conc, individual mouse ([1]; plasma, repeated study, male, VD3 Def, 10.5 Days): 19.46 nM and 37.99 nM and 211.48 nM and 27.59 nM and 28.34 nM and 9.45 nM and 27.41 nM | DEX conc, individual mouse ([1]; plasma, repeated study, male, VD3 Def, 17.5 Days): 12.05 nM and 27.36 nM | DEX conc, individual mouse ([1]; plasma, repeated study, male, VD3 Suf, 3.5 Days): BLQ (BLQ = BELOW the LLOQ, lower lmit of quantification = 5 nM dexamethasone) | DEX conc, individual mouse ([1]; plasma, repeated study, male, VD3 Suf, 10.5 Days): BLQ (BLQ = BELOW the LLOQ, lower lmit of quantification = 5 nM dexamethasone) | DEX conc, individual mouse ([1]; plasma, repeated study, male, VD3 Suf, 17.5 Days): 22.35 nM and 12.66 nM and 32.4 nM and 32.15 nM and 26.39 nM | % BLQ ([1]; share of plasma samples below LLOQ 5 nM, male, VD3 Suf, 3.5 Days): 67% | concentration at 2 h [2]: 0.676 µg/mL | estimated Cgut (gut concentration) ([3]; single oral gavage): 200 µM | higher CL/F in males vs females ([3]; single oral gavage 2 mg/kg DEX phosphate, regardless of VD3 status): ~ 25% | lower AUC values in males vs females ([3]; single oral gavage 2 mg/kg dexamethasone phosphate, 14 weeks): approximately 25% | apparent oral clearance (CL/F), male vs female ([3]; single oral gavage, regardless of VD3 status): 1.26 fold | DV (Dex oral gavage PK raw data) ([3]; time 0.25, SEX:F, VD3_DEF:0): 907.64 and 982.88 | DV (Dex oral gavage PK raw data) ([3]; time 0.25, SEX:M, VD3_DEF:0): 359.52 and 381.14 and 918.28 and 295.91 | DV (Dex oral gavage PK raw data) ([3]; time 0.5, SEX:F, VD3_DEF:0): 300.45 and 875.91 and 827.78 and 1011.08 and 796.28 | DV (Dex oral gavage PK raw data) ([3]; time 0.5, SEX:M, VD3_DEF:0): 854.61 and 443.3 and 391.17 and 812.36 and 581.49 | DV (Dex oral gavage PK raw data) ([3]; time 0.75, SEX:F, VD3_DEF:0): 593 and 696.57 and 716.27 | DV (Dex oral gavage PK raw data) ([3]; time 0.75, SEX:M, VD3_DEF:0): 319 and 407.15 and 712.45 and 358.52 | DV (Dex oral gavage PK raw data) ([3]; time 1, SEX:F, VD3_DEF:0): 323.98 and 614.7 and 559.39 and 858.7 and 572.77 | DV (Dex oral gavage PK raw data) ([3]; time 1, SEX:M, VD3_DEF:0): 871.76 and 446.29 and 284.95 and 564.36 and 379.97 | DV (Dex oral gavage PK raw data) ([3]; time 1.5, SEX:F, VD3_DEF:0): 400.31 and 458.1 and 520.89 | DV (Dex oral gavage PK raw data) ([3]; time 1.5, SEX:M, VD3_DEF:0): 262.55 and 317.69 and 754.41 and 324.39 | DV (Dex oral gavage PK raw data) ([3]; time 2, SEX:F, VD3_DEF:0): 620.12 and 492.72 and 552.22 and 715.36 | DV (Dex oral gavage PK raw data) ([3]; time 2, SEX:M, VD3_DEF:0): 450.54 and 344.89 and 388.67 and 378.66 and 784.19 | DV (Dex oral gavage PK raw data) ([3]; time 2, SEX:M, VD3_DEF:1): 453.95 and 476.24 | DV (Dex oral gavage PK raw data) ([3]; time 4, SEX:F, VD3_DEF:0): 375.42 and 312.44 and 291.92 and 312.42 and 297.86 | DV (Dex oral gavage PK raw data) ([3]; time 4, SEX:M, VD3_DEF:0): 215.15 and 191.38 and 191.07 and 239.97 and 623.74 | DV (Dex oral gavage PK raw data) ([3]; time 4, SEX:M, VD3_DEF:1): 214.6 and 240.73 and 185.34 | DV (Dex oral gavage PK raw data) ([3]; time 8, SEX:F, VD3_DEF:0): 121.36 and 89.26 and 221.1 and 152.45 and 67.95 | DV (Dex oral gavage PK raw data) ([3]; time 8, SEX:M, VD3_DEF:0): 74.87 and 61.36 and 52.11 and 112.04 and 269.34 | DV (Dex oral gavage PK raw data) ([3]; time 8, SEX:M, VD3_DEF:1): 66.26 and 72.8 | DV (Dex oral gavage PK raw data) ([3]; time 16, SEX:F, VD3_DEF:0): 29.97 and 65.92 and 14.35 and 7.95 and 53.43 | DV (Dex oral gavage PK raw data) ([3]; time 16, SEX:M, VD3_DEF:0): 18.43 and 25.62 and 92.79 and 13.68 and 19.85 | EC50 ([4]; printed in Fig 9, ref Kliewer SA, et al. Cell. 1998): 30 µM | Kd ([4]; relatively weak PXR agonist, no reference given, read-out: Kd as PXR agonist): ~30 µM
